Values quoted from earlier work in patent publication US20120058097A1, “COMPOSITIONS INCLUDING A SODIUM CHANNEL BLOCKER AND A B VITAMIN MOLECULE AND METHODS OF USE THEREOF” (MS THERAPEUTICS LIMITED, priority 2010, published 2012).

Experiments:
[1] = test system: people with secondary progressive multiple sclerosis
[2] = in vivo

## Nc1nnc(-c2cccc(Cl)c2Cl)c(N)n1 [lamotrigine, 3,5-diamino-6-(2,3-dichlorophenyl)-1,2,4-triaz-ine]
[1]; compared to the control group, 120 people with secondary progressive multiple sclerosis
  deterioration of walking speed: approximately halve the deterioration of walking speed
[1]; primary outcome measure, 2 year trial
  MRI measurements of brain volume: early reduction in brain volume which was reversible over the 2 year course of the trial
[2]
  half life: 23 to 36 h
